Experimental data as given in the NIST ThermoML archive (doi:10.1021/je200806n).

Test: xn = mol fraction of the nth substance listed
Settings: 101.3 kPa, Liquid

CCCCCC(C)O (centres undefined) [2-heptanol] + O=C1CCCCC1
Settings | mass density, 298.15 K [kg/m3] | mass density, 303.15 K [kg/m3] | mass density, 308.15 K [kg/m3] | mass density, 313.15 K [kg/m3] | viscosity, 298.15 K [mPa·s] | viscosity, 303.15 K [mPa·s] | viscosity, 308.15 K [mPa·s] | viscosity, 313.15 K [mPa·s]
x2 = 0 | 813.18 | 809.26 | 805.01 | 801.14 | 5.023 | 4.151 | 3.478 | 2.852
x2 = 0.0826 | 820.37 | 816.21 | 811.69 | 807.61 | 4.282 | 3.546 | 2.94 | 2.412
x2 = 0.1625 | 827.64 | 823.36 | 818.81 | 814.53 | 3.64 | 2.986 | 2.448 | 1.989
x2 = 0.2415 | 835.26 | 830.91 | 826.28 | 821.87 | 3.081 | 2.473 | 1.999 | 1.604
x2 = 0.3506 | 846.69 | 842.19 | 837.46 | 832.94 | 2.401 | 1.874 | 1.482 | 1.151
x2 = 0.44 | 856.83 | 852.22 | 847.44 | 842.79 | 1.954 | 1.468 | 1.141 | 0.862
x2 = 0.5603 | 871.72 | 866.99 | 862.12 | 857.35 | 1.513 | 1.107 | 0.849 | 0.627
x2 = 0.6494 | 883.79 | 878.98 | 874.11 | 869.26 | 1.308 | 0.971 | 0.773 | 0.576
x2 = 0.7394 | 896.96 | 892.15 | 887.29 | 882.32 | 1.243 | 0.976 | 0.816 | 0.647
x2 = 0.85 | 914.67 | 909.91 | 905.04 | 900.06 | 1.391 | 1.193 | 1.054 | 0.91
x2 = 0.9392 | 930.26 | 925.58 | 920.79 | 915.85 | 1.727 | 1.535 | 1.411 | 1.256

CCCCC(C)O (centres undefined) [2-hexanol] + O=C1CCCCC1
Settings | mass density, 298.15 K [kg/m3] | mass density, 303.15 K [kg/m3] | mass density, 308.15 K [kg/m3] | mass density, 313.15 K [kg/m3] | viscosity, 298.15 K [mPa·s] | viscosity, 303.15 K [mPa·s] | viscosity, 308.15 K [mPa·s] | viscosity, 313.15 K [mPa·s]
x2 = 0 | 810.14 | 806.13 | 802.06 | 797.96 | 4.101 | 3.411 | 2.819 | 2.219
x2 = 0.0821 | 818.43 | 814.12 | 809.89 | 805.91 | 3.432 | 2.834 | 2.278 | 1.686
x2 = 0.1612 | 826.61 | 822.29 | 818.07 | 814.07 | 2.879 | 2.346 | 1.823 | 1.307
x2 = 0.2409 | 835.25 | 830.81 | 826.44 | 822.41 | 2.406 | 1.932 | 1.453 | 1.024
x2 = 0.3496 | 847.88 | 843.37 | 838.88 | 834.71 | 1.896 | 1.477 | 1.122 | 0.781
x2 = 0.4391 | 858.93 | 854.32 | 849.76 | 845.48 | 1.591 | 1.23 | 0.949 | 0.679
x2 = 0.56 | 874.62 | 869.92 | 865.28 | 860.83 | 1.359 | 1.08 | 0.873 | 0.655
x2 = 0.649 | 886.88 | 882.07 | 877.39 | 872.97 | 1.325 | 1.082 | 0.907 | 0.727
x2 = 0.7391 | 899.87 | 895.12 | 890.41 | 885.97 | 1.388 | 1.173 | 1.026 | 0.85
x2 = 0.8492 | 916.79 | 912.01 | 907.19 | 902.71 | 1.576 | 1.4 | 1.249 | 1.068
x2 = 0.9395 | 931.44 | 926.63 | 921.93 | 917.21 | 1.842 | 1.662 | 1.505 | 1.326

CCC(C)O (centres undefined) [butan-2-ol] + O=C1CCCCC1
x2 = 0
Settings | mass density [kg/m3] | viscosity [mPa·s]
298.15 K | 803.01 | 3.104
303.15 K | 798.29 | 2.597
308.15 K | 793.57 | 2.152
313.15 K | 789.15 | 1.733

O=C1CCCCC1 [cyclohexanone] + CC(C)O
Settings | mass density, 298.15 K [kg/m3] | mass density, 303.15 K [kg/m3] | mass density, 308.15 K [kg/m3] | mass density, 313.15 K [kg/m3] | viscosity, 298.15 K [mPa·s] | viscosity, 303.15 K [mPa·s] | viscosity, 308.15 K [mPa·s] | viscosity, 313.15 K [mPa·s]
x1 = 0.0812 | 797.69 | 792.97 | 788.11 | 783.28 | 1.689 | 1.489 | 1.301 | 1.142
x1 = 0.1576 | 812.54 | 807.67 | 802.73 | 797.79 | 1.436 | 1.268 | 1.098 | 0.961
x1 = 0.2398 | 827.76 | 822.83 | 817.68 | 812.71 | 1.236 | 1.081 | 0.934 | 0.817
x1 = 0.3495 | 846.99 | 841.93 | 836.59 | 831.76 | 1.067 | 0.934 | 0.809 | 0.715
x1 = 0.4363 | 861.43 | 856.27 | 851.05 | 846.26 | 1.023 | 0.899 | 0.779 | 0.689
x1 = 0.5601 | 880.96 | 875.76 | 870.51 | 865.33 | 1.076 | 0.951 | 0.845 | 0.751
x1 = 0.6502 | 894.41 | 889.21 | 884.09 | 878.95 | 1.177 | 1.056 | 0.949 | 0.854
x1 = 0.7403 | 907.32 | 902.15 | 897.23 | 892.17 | 1.331 | 1.202 | 1.087 | 0.995
x1 = 0.8481 | 922.15 | 917.06 | 912.28 | 907.09 | 1.581 | 1.437 | 1.301 | 1.211
x1 = 0.9384 | 934.01 | 929.05 | 924.41 | 919.35 | 1.845 | 1.675 | 1.537 | 1.412
x1 = 1 | 941.91 | 937.24 | 932.67 | 927.72 | 2.057 | 1.847 | 1.694 | 1.546

O=C1CCCCC1 [cyclohexanone] + CCC(C)O
Settings | mass density, 298.15 K [kg/m3] | mass density, 303.15 K [kg/m3] | mass density, 308.15 K [kg/m3] | mass density, 313.15 K [kg/m3] | viscosity, 298.15 K [mPa·s] | viscosity, 303.15 K [mPa·s] | viscosity, 308.15 K [mPa·s] | viscosity, 313.15 K [mPa·s]
x1 = 0.0814 | 814.99 | 811.03 | 805.17 | 800.53 | 2.511 | 2.163 | 1.828 | 1.441
x1 = 0.1598 | 826.39 | 822.21 | 816.34 | 811.48 | 2.067 | 1.82 | 1.561 | 1.186
x1 = 0.2444 | 838.54 | 834.13 | 828.18 | 823.15 | 1.737 | 1.535 | 1.33 | 0.982
x1 = 0.3514 | 853.71 | 849.09 | 843.19 | 838.01 | 1.472 | 1.305 | 1.128 | 0.841
x1 = 0.4404 | 866.19 | 861.39 | 855.62 | 850.33 | 1.361 | 1.206 | 1.039 | 0.794
x1 = 0.5596 | 882.62 | 877.71 | 872.19 | 866.91 | 1.332 | 1.183 | 1.036 | 0.825
x1 = 0.6523 | 895.31 | 890.36 | 884.99 | 879.69 | 1.4 | 1.249 | 1.108 | 0.914
x1 = 0.738 | 906.94 | 901.93 | 896.81 | 891.52 | 1.501 | 1.354 | 1.224 | 1.051
x1 = 0.8494 | 921.86 | 916.99 | 912.09 | 907.01 | 1.704 | 1.558 | 1.41 | 1.248
x1 = 0.9361 | 933.34 | 928.57 | 924.04 | 918.99 | 1.889 | 1.716 | 1.572 | 1.43
x1 = 1 | 941.91 | 937.24 | 932.67 | 927.72 | 2.057 | 1.847 | 1.694 | 1.546

O=C1CCCCC1 [cyclohexanone] + CCCC(C)O
x1 = 1
Settings | mass density [kg/m3] | viscosity [mPa·s]
298.15 K | 941.91 | 2.057
303.15 K | 937.24 | 1.847
308.15 K | 932.67 | 1.694
313.15 K | 927.72 | 1.546

O=C1CCCCC1 [cyclohexanone] + CCCCC(C)O
x1 = 1
Settings | mass density [kg/m3] | viscosity [mPa·s]
298.15 K | 941.91 | 2.057
303.15 K | 937.24 | 1.847
308.15 K | 932.67 | 1.694
313.15 K | 927.72 | 1.546

O=C1CCCCC1 [cyclohexanone] + CCCCCC(C)O
x1 = 1
Settings | mass density [kg/m3] | viscosity [mPa·s]
298.15 K | 941.91 | 2.057
303.15 K | 937.24 | 1.847
308.15 K | 932.67 | 1.694
313.15 K | 927.72 | 1.546
